The results in this text go back to a compilation of properties of binary mixtures (doi:10.1021/je300108z).

This data set in a line: xn = mol fraction of the nth substance listed. The settings on record: 101 kPa.

For the compound `CCCCCCCCCCCC[N+](CC)(CC)CC.O=S(=O)([N-]S(=O)(=O)C(F)(F)F)C(F)(F)F` + O, the viscosity reads like this: (302.95 K, x2 = 0.1238) 97.2 mPa·s; (308.05 K, x2 = 0.1238) 76.6 mPa·s; (313.05 K, x2 = 0.1238) 60.7 mPa·s; (318.05 K, x2 = 0.1238) 48.8 mPa·s; (322.95 K, x2 = 0.1238) 39.19 mPa·s.

For the compound `CCCCCCCC[N+](CC)(CC)CC.O=S(=O)([N-]S(=O)(=O)C(F)(F)F)C(F)(F)F` + O, the viscosity is given as 107.8 mPa·s (293.25 K, x2 = 0.1442); 88.1 mPa·s (298.05 K, x2 = 0.1442); 69.8 mPa·s (303.05 K, x2 = 0.1442); 45.09 mPa·s (313.05 K, x2 = 0.1442).

Regarding `CCCCCC[N+](CC)(CC)CC.O=S(=O)([N-]S(=O)(=O)C(F)(F)F)C(F)(F)F` + O, the viscosity is 66.7 mPa·s (298.05 K, x2 = 0.1618); 54 mPa·s (303.05 K, x2 = 0.1618); 36.49 mPa·s (313.05 K, x2 = 0.1618); 30.73 mPa·s (318.05 K, x2 = 0.1618); 25.98 mPa·s (322.95 K, x2 = 0.1618).

The viscosity is the internal friction of a fluid under shear. Read a high viscosity as sluggish flow.
